Experiment [1] concerns Streptococcus. As to the kind of experiment: Group A Streptococcus viability loss, dose response, counter-screen for streptokinase expression inhibitor project, luminescence, BacTiterGlo (AID 1915).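 Also: potency for reduction of bacterial viability or growth.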 The experiment is classed as functional, organism-based. Background: The purpose of a counterscreen is to sort out artefacts and off-target activity.
Experiment [2] concerns Streptococcus sp. 'group A'. As to the kind of experiment: growth inhibition of control SK(-) GAS strain, dose response, counter-screen for streptokinase expression inhibitor project, luminescence, kanamycin, BacTiterGlo, confirmation (AID 1900). The experiment is classed as functional, organism-based.
Experiment [3] has as its target DNA (cytosine-5)-methyltransferase 1 (Homo sapiens, UniProt P26358). In words: DNMT1 methyltransferase inhibitors, confirmation, biochemical, fluorescent molecular beacon (AID 602386). The experiment is classed as functional.
Experiment [4] has as its target T1, Carboxy-terminal domain RNA polymerase II polypeptide A small phosphatase 1 (Homo sapiens, UniProt Q9GZU7).
T1 sequence (Q9GZU7 whole entry): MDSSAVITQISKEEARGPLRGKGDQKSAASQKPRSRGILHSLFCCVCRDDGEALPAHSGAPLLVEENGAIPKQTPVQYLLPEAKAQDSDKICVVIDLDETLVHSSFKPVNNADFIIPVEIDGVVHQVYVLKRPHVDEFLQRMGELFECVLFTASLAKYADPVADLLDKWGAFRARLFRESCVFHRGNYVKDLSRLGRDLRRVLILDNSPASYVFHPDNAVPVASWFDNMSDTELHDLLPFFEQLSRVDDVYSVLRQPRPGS
As to the kind of experiment: inhibitors of CTDSP1, concentration-response testing, biochemical assay, absorbance-based, actives from ultra-high-throughput screening (AID 540297). Format: functional.

Experiment [5] concerns the target T2, Streptokinase A (Streptococcus pyogenes serotype M1, UniProt P10520).
T2 sequence (P10520 whole entry): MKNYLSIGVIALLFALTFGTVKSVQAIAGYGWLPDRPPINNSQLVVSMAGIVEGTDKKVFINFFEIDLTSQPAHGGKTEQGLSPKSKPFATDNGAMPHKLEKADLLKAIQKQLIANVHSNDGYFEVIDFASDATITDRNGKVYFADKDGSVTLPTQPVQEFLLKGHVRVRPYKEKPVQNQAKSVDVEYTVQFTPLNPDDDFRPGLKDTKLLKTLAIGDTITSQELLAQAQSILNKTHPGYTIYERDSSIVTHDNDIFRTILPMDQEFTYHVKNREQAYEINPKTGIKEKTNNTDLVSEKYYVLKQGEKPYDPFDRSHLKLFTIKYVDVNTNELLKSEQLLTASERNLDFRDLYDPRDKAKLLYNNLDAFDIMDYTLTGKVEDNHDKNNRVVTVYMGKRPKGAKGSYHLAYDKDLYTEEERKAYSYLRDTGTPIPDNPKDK
In words: S. pyogenes streptokinase expression inhibitors, potency, dose response, plasminogen activation absorbance, OD405 (AID 1914).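 Also: secreted streptokinase activity via plasminogen activation per viability signal from cell pellet.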 The experiment is classed as functional, Streptococcus pyogenes M1 GAS.

Experiment [6] has as its system Vero. As to the kind of experiment: Vero cell toxicity, dose response, cytotoxicity control, plate reader, cherry-pick samples (AID 687020). The experiment is classed as functional, cell-based. Particulars: Chlorocebus sabaeus.
The target of experiment [7] is T3, Low molecular weight phosphotyrosine protein phosphatase (Homo sapiens, UniProt P24666).
T3 sequence (P24666 whole entry): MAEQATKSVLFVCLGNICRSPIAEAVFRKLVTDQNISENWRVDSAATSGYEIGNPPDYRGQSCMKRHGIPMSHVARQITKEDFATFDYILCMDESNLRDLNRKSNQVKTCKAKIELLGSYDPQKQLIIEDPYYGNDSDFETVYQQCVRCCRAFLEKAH
Format: functional. The note with it: read-out: IC50_Mean.

Experiment [8] concerns the target T3, Low molecular weight phosphotyrosine protein phosphatase. Format: functional. Particulars: read-out: IC50_Mean. This is another data set of the same source.
The target in experiment [9] is Protein disulfide-isomerase (Homo sapiens, UniProt P07237). As to the kind of experiment: PDI inhibitors, insulin aggregation turbidity, dose response, biochemical, absorbance, cherry-picked samples (AID 602350). The experiment is classed as functional.
The target of experiment [10] is T4, Heat shock factor protein 1 (Mus musculus, UniProt P38532).
T4 sequence (P38532 whole entry): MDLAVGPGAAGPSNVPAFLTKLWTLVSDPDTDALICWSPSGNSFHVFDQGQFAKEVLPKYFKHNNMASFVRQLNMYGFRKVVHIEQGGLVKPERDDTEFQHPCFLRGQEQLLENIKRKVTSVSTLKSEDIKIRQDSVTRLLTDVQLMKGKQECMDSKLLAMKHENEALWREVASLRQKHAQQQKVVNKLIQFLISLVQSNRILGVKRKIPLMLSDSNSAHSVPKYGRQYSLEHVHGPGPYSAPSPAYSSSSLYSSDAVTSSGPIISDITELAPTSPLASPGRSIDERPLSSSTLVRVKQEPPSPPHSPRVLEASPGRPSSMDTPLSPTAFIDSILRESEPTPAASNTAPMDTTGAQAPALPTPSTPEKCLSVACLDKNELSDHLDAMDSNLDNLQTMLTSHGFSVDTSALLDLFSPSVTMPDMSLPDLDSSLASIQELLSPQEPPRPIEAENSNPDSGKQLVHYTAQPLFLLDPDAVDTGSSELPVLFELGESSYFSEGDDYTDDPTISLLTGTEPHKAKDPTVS
In words: HSF1 potentiators in luciferase reporter cells, confirmation, cell-based, NIH3T3, luminescence, dose retest (AID 435004).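 Also: stress induced by proteasome inhibitor MG132 added 30 min after compound; luciferase reporter driven by HSF1 response element in NIH3T3 cells; actives raise luminescence as potentiators of the MG132 stress response.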 Format: functional. (Reporter assays use an easily measured gene product as a stand-in for the process of interest.)

The target in experiment [11] is T5, Corticotropin-releasing factor receptor 2/Corticotropin-releasing factor-binding protein (Homo sapiens, UniProt P24387+Q13324).
T5 sequence (Q13324 whole entry): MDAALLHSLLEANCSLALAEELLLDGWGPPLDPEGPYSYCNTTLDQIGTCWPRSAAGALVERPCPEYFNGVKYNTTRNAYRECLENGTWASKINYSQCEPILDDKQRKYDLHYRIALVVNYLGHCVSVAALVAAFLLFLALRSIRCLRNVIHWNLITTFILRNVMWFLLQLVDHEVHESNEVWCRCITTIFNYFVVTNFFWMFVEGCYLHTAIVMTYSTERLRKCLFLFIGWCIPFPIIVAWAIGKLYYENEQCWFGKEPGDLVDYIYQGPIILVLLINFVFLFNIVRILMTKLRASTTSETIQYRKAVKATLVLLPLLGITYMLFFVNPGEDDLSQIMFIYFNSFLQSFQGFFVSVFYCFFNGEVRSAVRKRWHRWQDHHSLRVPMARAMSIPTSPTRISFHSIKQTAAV
T5 sequence (P24387 whole entry): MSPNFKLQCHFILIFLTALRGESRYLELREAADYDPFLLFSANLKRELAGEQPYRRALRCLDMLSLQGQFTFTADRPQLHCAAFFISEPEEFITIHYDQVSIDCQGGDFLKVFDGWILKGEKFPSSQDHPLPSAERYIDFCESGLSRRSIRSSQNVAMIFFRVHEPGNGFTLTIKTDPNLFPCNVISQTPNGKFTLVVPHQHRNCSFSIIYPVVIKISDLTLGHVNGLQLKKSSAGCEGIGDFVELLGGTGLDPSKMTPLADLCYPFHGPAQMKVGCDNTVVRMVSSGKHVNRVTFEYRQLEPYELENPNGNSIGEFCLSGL
In words: activators of CRF receptor 2 with binding protein – uHTS hits, confirmation (AID 602473). The experiment is classed as functional. Particulars: read-out: EC50_Mean.

The target of experiment [12] is T6, Hexokinase HKDC1 (Homo sapiens, UniProt Q2TB90).
T6 sequence (Q2TB90 whole entry): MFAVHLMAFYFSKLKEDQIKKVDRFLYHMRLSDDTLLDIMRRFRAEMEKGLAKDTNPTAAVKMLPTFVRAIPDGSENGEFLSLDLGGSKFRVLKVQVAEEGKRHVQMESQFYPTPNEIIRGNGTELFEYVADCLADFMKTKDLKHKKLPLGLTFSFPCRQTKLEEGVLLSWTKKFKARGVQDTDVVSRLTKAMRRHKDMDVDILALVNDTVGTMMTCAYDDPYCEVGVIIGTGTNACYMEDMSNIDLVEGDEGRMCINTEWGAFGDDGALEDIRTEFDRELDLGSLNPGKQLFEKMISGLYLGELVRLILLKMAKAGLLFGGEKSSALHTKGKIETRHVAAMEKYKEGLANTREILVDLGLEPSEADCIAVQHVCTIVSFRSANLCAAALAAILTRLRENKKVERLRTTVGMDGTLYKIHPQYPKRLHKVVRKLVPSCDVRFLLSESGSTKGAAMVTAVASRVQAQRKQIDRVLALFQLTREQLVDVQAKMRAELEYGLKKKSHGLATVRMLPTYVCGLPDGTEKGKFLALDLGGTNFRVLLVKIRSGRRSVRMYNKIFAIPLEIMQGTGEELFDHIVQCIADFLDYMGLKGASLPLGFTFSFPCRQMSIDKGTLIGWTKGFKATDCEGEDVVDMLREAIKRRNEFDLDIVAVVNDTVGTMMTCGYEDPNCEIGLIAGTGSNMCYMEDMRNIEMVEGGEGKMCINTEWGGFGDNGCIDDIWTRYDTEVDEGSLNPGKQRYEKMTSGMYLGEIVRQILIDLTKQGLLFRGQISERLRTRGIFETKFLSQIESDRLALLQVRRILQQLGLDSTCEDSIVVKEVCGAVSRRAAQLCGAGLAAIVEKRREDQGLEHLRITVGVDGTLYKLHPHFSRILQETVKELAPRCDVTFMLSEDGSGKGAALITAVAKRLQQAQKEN
As to the kind of experiment: HKDC1 hexokinase inhibitors, dose response, biochemical, W721R variant (AID 504729). The experiment is classed as functional.

Experiment [13] addresses Large T antigen (Simian virus 40, UniProt P03070). The experiment is classed as functional, Betapolyomavirus macacae.
Experiment [14] concerns the target Phospholipase A2 (Homo sapiens, UniProt P04054). Format: functional.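 Also: confirmatory dose-response counterscreen on phospholipase A2, testing hits that came from an ultra-high-throughput screen for ATG4B inhibitors.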
Experiment [15] addresses T7, Cysteine protease ATG4B (Homo sapiens, UniProt Q9Y4P1).
T7 sequence (Q9Y4P1 whole entry): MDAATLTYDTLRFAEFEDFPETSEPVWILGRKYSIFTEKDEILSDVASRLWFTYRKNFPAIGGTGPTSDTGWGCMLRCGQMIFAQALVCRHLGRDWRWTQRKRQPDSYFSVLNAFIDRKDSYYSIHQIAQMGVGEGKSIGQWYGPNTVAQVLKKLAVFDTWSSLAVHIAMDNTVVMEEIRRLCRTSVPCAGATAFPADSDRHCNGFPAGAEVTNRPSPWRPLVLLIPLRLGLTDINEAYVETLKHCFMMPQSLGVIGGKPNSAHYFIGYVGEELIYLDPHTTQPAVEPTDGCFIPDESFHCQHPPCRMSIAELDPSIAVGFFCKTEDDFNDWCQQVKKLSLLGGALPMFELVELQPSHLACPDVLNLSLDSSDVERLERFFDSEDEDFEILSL
The experiment is classed as functional.

For experiment [16], the target named is T8, Interleukin-8 (Homo sapiens, UniProt P10145).
T8 sequence (P10145 whole entry): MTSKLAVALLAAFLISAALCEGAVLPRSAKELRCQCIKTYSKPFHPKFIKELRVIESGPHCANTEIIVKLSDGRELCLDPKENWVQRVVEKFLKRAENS
As to the kind of experiment: Dose Response confirmation of uHTS small molecule hits for cystic fibrosis induced NFkb Inhibitors in a TNFa-induced IL8 counterscreen. The experiment is classed as functional. The note with it: read-out: IC50_Mean.

For experiment [17], the target named is T8, Interleukin-8. As to the kind of experiment: Dose Response confirmation of uHTS small molecule hits for cystic fibrosis induced NFkb Inhibitors in a PAF-induced IL8 counterscreen. Format: functional. Particulars: read-out: IC50_Mean.
Experiment [18] relates to Vero. In words: Vero cell cytotoxicity, cytotoxicity control for flavivirus capping enzyme inhibitors (AID 588742). Particulars: Chlorocebus sabaeus. The experiment is classed as functional.
The nature of experiment [19]: Fluorescence-based cell-based high throughput dose response assay for inhibitors of the interaction of nucleotide-binding oligomerization domain containing 2 (NOD2) and the receptor-interacting serine-threonine kinase 2 (RIPK2). Format: functional. The note with it: Homo sapiens.
The target of experiment [20] is Paired box protein Pax-8 (Homo sapiens, UniProt Q06710). In words: inhibitors of PAX8-driven TPO luciferase reporter, dose response, RMG-I cells, cherry-pick (AID 687027).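 Also: luciferase reporter driven by Pax8 target thyroperoxidase promoter measured by SteadyGlo luminescence.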 The experiment is classed as functional, cell-based.
In experiment [21] the test system is HEK293. As to the kind of experiment: inhibitors of LMP1-driven NF-kB reporter, dose response, cell-based, HEK293, luciferase, cherry-pick (AID 588343). Particulars: Homo sapiens. The experiment is classed as functional.

Activity calls are given as the source filed them. Some results are limits rather than exact numbers.

Sequence of DNA (cytosine-5)-methyltransferase 1 (P26358 whole entry, the tested form may be a part): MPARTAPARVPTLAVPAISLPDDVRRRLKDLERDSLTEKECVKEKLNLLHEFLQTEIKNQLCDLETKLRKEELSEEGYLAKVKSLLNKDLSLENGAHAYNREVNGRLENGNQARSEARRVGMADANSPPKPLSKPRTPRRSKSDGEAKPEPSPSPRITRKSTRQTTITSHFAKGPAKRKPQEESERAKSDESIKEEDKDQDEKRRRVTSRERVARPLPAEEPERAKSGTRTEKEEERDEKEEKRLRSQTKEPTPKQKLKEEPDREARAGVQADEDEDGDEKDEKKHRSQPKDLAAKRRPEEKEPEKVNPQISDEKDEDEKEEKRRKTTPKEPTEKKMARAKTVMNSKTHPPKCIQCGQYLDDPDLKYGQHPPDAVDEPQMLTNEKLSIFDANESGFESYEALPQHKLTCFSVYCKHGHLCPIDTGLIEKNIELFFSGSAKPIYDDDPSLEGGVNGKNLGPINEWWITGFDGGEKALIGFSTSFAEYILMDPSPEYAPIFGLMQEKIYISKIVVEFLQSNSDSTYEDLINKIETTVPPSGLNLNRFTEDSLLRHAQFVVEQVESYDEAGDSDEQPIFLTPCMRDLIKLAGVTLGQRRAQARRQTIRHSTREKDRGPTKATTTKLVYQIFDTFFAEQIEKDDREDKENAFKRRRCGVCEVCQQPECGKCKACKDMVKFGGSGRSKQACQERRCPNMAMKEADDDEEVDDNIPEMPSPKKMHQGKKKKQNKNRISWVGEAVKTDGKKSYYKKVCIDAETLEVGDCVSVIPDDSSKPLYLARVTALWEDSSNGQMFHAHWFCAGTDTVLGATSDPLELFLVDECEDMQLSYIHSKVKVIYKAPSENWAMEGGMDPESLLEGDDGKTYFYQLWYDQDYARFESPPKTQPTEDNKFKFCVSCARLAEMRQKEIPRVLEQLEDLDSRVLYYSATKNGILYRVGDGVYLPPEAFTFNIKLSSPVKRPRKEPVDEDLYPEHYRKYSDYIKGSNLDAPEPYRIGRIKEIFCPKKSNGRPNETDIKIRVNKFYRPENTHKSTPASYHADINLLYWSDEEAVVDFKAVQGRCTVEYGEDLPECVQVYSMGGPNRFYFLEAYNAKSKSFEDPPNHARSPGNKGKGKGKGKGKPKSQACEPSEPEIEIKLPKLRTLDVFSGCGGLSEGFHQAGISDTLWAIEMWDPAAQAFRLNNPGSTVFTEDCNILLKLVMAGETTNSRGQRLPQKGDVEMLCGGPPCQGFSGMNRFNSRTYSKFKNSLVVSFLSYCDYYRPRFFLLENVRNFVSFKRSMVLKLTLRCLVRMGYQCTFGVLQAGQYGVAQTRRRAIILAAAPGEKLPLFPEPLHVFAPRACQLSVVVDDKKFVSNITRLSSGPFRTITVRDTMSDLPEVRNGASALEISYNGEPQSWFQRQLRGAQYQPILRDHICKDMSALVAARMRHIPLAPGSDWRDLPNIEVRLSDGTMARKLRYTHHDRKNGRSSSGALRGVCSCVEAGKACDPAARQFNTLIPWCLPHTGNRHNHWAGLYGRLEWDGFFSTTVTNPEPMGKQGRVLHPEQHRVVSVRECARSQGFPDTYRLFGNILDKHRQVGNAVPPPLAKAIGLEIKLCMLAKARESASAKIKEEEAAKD
Sequence of Paired box protein Pax-8 (Q06710 whole entry): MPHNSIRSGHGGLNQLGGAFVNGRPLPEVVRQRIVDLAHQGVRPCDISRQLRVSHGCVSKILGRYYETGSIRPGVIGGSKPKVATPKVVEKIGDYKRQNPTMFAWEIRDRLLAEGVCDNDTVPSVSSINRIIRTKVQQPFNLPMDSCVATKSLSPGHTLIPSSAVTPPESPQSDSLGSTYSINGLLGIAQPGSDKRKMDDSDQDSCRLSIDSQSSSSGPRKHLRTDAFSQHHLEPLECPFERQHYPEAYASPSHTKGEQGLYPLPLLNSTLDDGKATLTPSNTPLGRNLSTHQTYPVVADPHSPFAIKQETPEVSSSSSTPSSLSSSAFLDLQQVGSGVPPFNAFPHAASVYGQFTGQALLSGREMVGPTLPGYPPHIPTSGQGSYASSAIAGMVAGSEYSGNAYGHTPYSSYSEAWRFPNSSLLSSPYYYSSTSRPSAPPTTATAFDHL
Sequence of Large T antigen (P03070 whole entry): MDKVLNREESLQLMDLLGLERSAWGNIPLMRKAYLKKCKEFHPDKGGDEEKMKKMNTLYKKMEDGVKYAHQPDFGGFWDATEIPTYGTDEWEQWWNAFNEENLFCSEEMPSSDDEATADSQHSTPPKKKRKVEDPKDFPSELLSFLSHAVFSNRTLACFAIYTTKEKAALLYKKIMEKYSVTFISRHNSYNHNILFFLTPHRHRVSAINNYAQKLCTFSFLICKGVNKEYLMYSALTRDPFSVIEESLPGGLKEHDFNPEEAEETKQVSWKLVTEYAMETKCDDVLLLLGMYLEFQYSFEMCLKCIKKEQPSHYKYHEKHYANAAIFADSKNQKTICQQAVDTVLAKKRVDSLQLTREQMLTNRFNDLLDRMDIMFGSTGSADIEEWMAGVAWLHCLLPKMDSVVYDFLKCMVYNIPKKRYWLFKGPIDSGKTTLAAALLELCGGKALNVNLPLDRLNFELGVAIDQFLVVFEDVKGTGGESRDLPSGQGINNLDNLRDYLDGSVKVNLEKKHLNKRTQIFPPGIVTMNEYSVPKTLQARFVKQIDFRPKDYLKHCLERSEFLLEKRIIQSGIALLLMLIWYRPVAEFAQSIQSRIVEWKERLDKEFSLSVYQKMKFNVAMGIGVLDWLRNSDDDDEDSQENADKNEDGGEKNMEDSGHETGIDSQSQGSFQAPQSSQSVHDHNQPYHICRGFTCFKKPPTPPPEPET
Sequence of Phospholipase A2 (P04054 whole entry): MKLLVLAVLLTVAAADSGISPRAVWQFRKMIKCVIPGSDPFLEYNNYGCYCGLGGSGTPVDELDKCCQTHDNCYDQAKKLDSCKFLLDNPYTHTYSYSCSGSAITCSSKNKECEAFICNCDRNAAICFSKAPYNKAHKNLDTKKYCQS
Sequence of Protein disulfide-isomerase (P07237 whole entry): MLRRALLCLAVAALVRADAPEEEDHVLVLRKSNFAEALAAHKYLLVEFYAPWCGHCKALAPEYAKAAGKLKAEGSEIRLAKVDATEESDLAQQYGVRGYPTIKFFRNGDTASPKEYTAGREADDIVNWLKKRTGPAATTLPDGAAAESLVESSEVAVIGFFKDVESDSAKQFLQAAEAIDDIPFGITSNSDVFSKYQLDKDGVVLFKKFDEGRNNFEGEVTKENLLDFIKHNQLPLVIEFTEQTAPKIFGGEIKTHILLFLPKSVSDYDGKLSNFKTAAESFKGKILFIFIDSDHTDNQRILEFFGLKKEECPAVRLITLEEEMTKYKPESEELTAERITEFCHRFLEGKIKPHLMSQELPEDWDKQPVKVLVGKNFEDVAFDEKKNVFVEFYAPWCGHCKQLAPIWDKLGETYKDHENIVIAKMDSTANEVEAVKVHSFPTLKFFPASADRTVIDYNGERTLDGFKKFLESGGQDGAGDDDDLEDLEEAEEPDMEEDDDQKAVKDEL

For the compound `CC(=O)OCC1=C(C(=O)O)N2C(=O)C(NC(=O)c3ccc(COc4cccc(Cl)c4Cl)o3)C2SC1` (stereo not given), the values for the EC50 in [1], in experiment [2] and in experiment [5] were 8.94 µM (active), 5.04 µM (active) and 12.6 µM (active), respectively. Moreover, the IC50 was 8.67 µM (active) in experiment [3] and 5.07 µM (active) in [4].
By AC50 is commonly meant the midpoint of the concentration-response curve, whichever way the signal moves. On to `CCCn1c(NCc2ccc(N(C)C)cc2)nc2ccccc21`, for which, in [6], the AC50 was 36.6 µM (active).
As for `O=C(/C=C\Nc1ccc2c(c1)OCO2)c1ccc(Cl)s1`, the IC50 in experiment [7] is 19.9 µM (active); in experiment [8], > 80 µM (inactive).
As for `CCCCc1cc(=O)oc2cc(C)cc(OCC(=O)N3CCC(C(N)=O)CC3)c12`, the AC50 in [6] is 37.5 µM (active).
As to `Cc1c(-n2cc(C(=O)c3ccccc3O)cc(C#N)c2=O)c(=O)n(-c2ccccc2)n1C`, the AC50 in experiment [9] is 5.89 µM (active). Also, the EC50 in experiment [10] was > 260 µM (inactive); in experiment [11], 8.01 µM (active).
For `Cc1cc(/C=C2\C(=O)NC(=O)N(c3ccc(Cl)cc3)C2=O)c(C)n1-c1sc2c(c1C#N)CCCC2`, the IC50 in experiment [12] was 10.8 µM (active); in [13] it was 17.2 µM (active); in experiment [14] it was 14.1 µM (active); in experiment [3], 9.52 µM (active); in experiment [15] it was 14.7 µM (active).
Take `O=C(c1ccccc1)C1OC1C(=O)c1ccccc1` (stereo not given): the results for the IC50 in experiment [16] and in experiment [17] were 6 µM (active) and 2.84 µM (active), respectively.
Broadly, the CC50 is the concentration that lowers cell viability or growth by half. On to `CC(=O)OC1CCC2(C)C(CCC3C4CC=C(C(C)=O)C4(C)OC(=O)CC32)C1` (stereo not given), for which, in experiment [18], the half-maximal cytotoxic concentration (CC50) is 34.9 µM (active). The IC50 in experiment [19] is 5.12 µM (active); in experiment [16], 1.12 µM (active); in [17] it was 0.338 µM (active). Besides, the AC50 in [20] is 6.49 µM (active); in experiment [21], 1.65 µM (active).
